Calls of active or inactive are those of the source.
Experiments:
[1] = Luminescence Cell-Based Dose Retest to Confirm Inhibitors of Cancer Stem Cells. [Related pubchem assays (depositor defined):AID2717, AID2721]; type: functional; conditions: Homo sapiens
Prothrombin = Prothrombin (Homo sapiens, UniProt P00734); assay: Thrombin 1536 HTS Dose Response Confirmation. [Related pubchem assays: 1046 (Thrombin 1536 HTS; hits were confirmed in this assay)]; type: functional
Aminopeptidase N = biological target: T1, Aminopeptidase N (Plasmodium falciparum FcB1/Columbia, UniProt O96935); assay: malaria alanyl aminopeptidase activity blockers – biochemical, fluorogenic H-Leu-NHMec substrate, 1536-well (AID 1445); design: species or system Plasmodium falciparum 3D7, 3D7
T1 sequence (O96935 whole entry): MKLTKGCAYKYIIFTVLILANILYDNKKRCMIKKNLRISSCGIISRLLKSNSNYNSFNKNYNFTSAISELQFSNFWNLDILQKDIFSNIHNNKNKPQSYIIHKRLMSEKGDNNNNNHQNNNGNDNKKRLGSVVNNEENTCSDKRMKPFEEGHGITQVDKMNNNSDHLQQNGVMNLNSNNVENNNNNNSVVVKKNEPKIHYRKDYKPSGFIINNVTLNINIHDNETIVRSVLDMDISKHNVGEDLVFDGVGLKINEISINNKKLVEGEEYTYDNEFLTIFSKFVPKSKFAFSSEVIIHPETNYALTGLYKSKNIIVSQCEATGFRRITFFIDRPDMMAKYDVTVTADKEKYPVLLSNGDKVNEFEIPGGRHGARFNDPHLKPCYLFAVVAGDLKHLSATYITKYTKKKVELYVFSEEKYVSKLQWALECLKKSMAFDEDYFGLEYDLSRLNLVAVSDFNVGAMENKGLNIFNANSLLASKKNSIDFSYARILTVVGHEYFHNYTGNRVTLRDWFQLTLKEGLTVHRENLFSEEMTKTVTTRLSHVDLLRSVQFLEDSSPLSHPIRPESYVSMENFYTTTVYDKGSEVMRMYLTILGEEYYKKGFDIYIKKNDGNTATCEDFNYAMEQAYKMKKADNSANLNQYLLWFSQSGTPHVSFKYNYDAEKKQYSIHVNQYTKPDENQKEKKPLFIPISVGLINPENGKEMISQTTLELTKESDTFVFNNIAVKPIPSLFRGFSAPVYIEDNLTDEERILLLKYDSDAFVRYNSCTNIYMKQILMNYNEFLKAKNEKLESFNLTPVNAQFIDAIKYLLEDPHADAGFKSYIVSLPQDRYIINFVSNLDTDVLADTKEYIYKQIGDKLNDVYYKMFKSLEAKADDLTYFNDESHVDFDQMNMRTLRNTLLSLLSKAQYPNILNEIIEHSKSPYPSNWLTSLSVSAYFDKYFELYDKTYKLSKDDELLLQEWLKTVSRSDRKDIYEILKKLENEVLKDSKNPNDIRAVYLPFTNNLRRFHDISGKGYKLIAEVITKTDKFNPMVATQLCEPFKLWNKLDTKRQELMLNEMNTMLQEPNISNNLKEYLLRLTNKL

[2] = biological target: Peroxisome proliferator-activated receptor gamma/Nuclear receptor coactivator 2 (Homo sapiens, UniProt P37231); type: functional;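 also: agonist potency for raising coactivator recruitment to the receptor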
[3] = biological target: Peroxisome proliferator-activated receptor gamma/Nuclear receptor coactivator 1 (Homo sapiens, UniProt P37231); type: functional;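 also: agonist potency as compounds enhance coactivator SRC-1 recruitment to PPARgamma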
[4] = biological target: Peroxisome proliferator-activated receptor gamma/Nuclear receptor coactivator 3 (Homo sapiens, UniProt P37231); type: functional;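 also: agonist potency for raising coactivator recruitment to the receptor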
[5] = biological target: T2, Alkaline phosphatase, tissue-nonspecific isozyme (Homo sapiens, UniProt P05186); assay: potency against alkaline phosphatase TNAP – biochemical, luminescent, dose response, SAR follow-up (AID 1056)
T2 sequence (P05186 whole entry): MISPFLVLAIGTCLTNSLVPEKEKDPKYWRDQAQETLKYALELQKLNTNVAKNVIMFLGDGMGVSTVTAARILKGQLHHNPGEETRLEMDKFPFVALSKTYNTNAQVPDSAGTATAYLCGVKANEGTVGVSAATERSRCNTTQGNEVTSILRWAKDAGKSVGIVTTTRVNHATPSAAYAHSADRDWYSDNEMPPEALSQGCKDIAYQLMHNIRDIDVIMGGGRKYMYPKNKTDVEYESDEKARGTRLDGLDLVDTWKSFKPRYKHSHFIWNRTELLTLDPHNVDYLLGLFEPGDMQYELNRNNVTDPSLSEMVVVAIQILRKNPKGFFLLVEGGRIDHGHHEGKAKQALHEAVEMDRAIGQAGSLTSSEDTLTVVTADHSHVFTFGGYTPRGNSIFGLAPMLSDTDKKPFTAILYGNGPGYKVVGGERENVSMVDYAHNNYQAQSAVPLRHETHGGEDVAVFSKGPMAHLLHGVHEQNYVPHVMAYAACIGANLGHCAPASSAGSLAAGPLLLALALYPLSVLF

[6] = biological target: Glyceraldehyde-3-phosphate dehydrogenase (Homo sapiens, UniProt P04406)
[7] = HIV-1 Vif–A3G interaction blockers – biochemical, TR-FRET, GST-Vif 1-94, biotin-A3G peptide, dose response retest, primary screen (AID 1117319); type: functional;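 also: TR-FRET signal of purified GST-Vif binding a biotinylated A3G peptide; inhibitors lower the FRET signal by blocking Vif and A3G binding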
[8] = biological target: T3, Heat shock factor protein 1 (Mus musculus, UniProt P38532); assay: enhancement of HSF1-driven luciferase signal – cell-based, NIH3T3, luminescence, dose retest, confirmation (AID 435004); type: functional;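 also: stress induced by proteasome inhibitor MG132 added 30 min after compound; luciferase reporter driven by HSF1 response element in NIH3T3 cells; actives raise luminescence as potentiators of the MG132 stress response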
T3 sequence (P38532 whole entry): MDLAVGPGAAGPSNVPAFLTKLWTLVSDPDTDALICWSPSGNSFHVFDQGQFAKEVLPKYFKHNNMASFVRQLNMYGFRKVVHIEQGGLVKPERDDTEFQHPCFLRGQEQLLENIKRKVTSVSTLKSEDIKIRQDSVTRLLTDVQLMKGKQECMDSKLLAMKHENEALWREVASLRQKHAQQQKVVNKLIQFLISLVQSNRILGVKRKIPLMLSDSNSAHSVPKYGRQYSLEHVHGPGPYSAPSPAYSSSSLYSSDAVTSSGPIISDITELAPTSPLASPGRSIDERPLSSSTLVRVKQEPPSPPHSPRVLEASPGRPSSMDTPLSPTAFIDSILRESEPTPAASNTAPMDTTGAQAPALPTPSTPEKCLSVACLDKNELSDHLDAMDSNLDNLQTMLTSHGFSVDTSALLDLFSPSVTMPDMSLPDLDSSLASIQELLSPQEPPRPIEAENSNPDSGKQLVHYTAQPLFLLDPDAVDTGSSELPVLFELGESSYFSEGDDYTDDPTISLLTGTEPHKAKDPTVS

[9] = viability of uninfected HEp-2 cells – cell-based, HTS, cytotoxicity control for RSV inhibitor project, dose response (AID 2410); type: functional; conditions: human respiratory syncytial virus
[10] = biological target: Mitogen-activated protein kinase 10 (Homo sapiens, UniProt P53779); assay: Dose response biochemical screening assay for inhibitors of c-Jun N-Terminal Kinase 3 (JNK3). [Related pubchem assays: 746 ]
HeLa = assay: ATP-based viability loss in HeLa cells – cell-based, CellTiter-Glo luminescence, cherry-pick samples, cytotoxicity control for MITF activator project, dose response (AID 540259); type: functional; conditions: Homo sapiens
INS1 = assay: INS-1E survival protection against cytokine death – cell-based, luminescence, retest, dose response (AID 449756); type: functional; conditions: Rattus norvegicus;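 also: cell death triggered by IL-1 beta plus TNF-alpha plus IFN-gamma mixture; protective hits raise ATP signal compared with cytokine alone wells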
Protein Wnt-3a = Protein Wnt-3a (Mus musculus, UniProt P27467); assay: antagonism of Wnt3a pathway luciferase reporter – Wnt-LIGHT cells, luminescence, selectivity assay for Gli-SUFU antagonist project, dose response (AID 651570); type: functional; conditions: read-out: IC50_Mean;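 also: Wnt-LIGHT reporter cells stimulated with conditioned medium from Wnt3a-producing cells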
[11] = biological target: T4, Carboxy-terminal domain RNA polymerase II polypeptide A small phosphatase 1 (Homo sapiens, UniProt Q9GZU7); assay: CTDSP1 inhibitors, concentration-response, biochemical, absorbance readout, ultra-high-throughput screen actives (AID 540297); type: functional
T4 sequence (Q9GZU7 whole entry): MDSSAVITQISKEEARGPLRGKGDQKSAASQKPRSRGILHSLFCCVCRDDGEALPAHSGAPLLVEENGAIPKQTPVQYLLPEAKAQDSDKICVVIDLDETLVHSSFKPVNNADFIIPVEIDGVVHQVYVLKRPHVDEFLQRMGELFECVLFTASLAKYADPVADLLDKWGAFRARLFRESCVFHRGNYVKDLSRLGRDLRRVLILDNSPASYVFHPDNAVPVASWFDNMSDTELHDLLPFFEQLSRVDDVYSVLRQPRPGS

[12] = biological target: Dual specificity tyrosine-phosphorylation-regulated kinase 1A (Rattus norvegicus, UniProt Q63470); type: biochemical, Homo sapiens
[13] = viability loss in THP-1 monocytes – THP-1 cells, cytotoxicity control for Vif-APOBEC3G degradation inhibitor project, dose response (AID 1117359); type: functional; conditions: THP-1
Cytochrome P450 2C9 = Cytochrome P450 2C9 (Homo sapiens, UniProt P11712)

Peroxisome proliferator-activated receptor gamma/Nuclear receptor coactivator 1, sequence (P37231 whole entry): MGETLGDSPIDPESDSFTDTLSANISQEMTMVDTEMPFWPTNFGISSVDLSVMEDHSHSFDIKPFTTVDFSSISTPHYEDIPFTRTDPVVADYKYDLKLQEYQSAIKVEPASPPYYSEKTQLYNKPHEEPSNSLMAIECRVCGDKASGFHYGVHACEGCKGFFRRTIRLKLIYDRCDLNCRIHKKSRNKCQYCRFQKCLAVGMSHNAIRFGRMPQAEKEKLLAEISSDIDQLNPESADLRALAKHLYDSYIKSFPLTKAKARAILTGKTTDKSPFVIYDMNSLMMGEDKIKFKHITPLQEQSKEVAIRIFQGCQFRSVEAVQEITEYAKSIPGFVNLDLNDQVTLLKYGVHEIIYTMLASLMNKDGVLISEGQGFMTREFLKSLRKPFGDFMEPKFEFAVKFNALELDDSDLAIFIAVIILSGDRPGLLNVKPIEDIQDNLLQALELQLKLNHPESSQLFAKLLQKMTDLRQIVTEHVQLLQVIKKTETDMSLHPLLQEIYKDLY
Peroxisome proliferator-activated receptor gamma/Nuclear receptor coactivator 1, sequence (Q15788 whole entry, further chain): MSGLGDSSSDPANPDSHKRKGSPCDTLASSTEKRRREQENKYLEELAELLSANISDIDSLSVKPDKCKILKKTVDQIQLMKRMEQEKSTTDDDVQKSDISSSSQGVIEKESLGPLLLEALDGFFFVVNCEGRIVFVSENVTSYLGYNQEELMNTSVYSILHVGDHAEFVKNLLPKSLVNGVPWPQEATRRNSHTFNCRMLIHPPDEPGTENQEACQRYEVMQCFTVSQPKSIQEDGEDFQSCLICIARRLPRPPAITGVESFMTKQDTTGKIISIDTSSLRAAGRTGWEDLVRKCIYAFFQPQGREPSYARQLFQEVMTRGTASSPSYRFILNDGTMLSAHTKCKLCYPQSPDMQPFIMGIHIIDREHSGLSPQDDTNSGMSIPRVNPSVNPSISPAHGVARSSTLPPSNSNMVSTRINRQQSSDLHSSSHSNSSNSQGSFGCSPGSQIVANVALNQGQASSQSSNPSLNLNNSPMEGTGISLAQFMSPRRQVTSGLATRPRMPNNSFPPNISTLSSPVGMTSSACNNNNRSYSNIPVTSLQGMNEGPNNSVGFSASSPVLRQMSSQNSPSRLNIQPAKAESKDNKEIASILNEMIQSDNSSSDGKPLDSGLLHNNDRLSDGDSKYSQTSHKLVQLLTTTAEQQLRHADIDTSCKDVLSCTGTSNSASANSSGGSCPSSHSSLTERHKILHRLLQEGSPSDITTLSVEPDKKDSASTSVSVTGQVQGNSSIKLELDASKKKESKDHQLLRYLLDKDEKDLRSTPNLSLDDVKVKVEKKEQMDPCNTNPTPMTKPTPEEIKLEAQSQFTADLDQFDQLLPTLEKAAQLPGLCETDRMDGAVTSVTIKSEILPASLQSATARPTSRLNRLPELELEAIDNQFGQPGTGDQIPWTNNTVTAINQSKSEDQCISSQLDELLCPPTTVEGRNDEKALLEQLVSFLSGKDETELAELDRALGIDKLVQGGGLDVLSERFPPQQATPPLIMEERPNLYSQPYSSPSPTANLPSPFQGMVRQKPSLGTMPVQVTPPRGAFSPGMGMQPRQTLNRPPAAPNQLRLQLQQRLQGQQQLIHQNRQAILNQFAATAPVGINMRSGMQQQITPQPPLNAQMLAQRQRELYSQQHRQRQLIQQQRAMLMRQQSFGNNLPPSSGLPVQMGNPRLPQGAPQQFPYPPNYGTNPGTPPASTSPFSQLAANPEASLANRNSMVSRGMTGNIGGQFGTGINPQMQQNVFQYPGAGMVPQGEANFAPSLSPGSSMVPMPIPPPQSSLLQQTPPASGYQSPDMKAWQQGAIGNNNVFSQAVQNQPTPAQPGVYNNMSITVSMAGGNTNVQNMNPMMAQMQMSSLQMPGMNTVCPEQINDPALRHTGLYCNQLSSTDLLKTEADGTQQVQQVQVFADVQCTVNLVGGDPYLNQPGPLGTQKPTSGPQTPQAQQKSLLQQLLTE
Peroxisome proliferator-activated receptor gamma/Nuclear receptor coactivator 2, sequence (P37231 whole entry): as the sequence (P37231 whole entry) above
Peroxisome proliferator-activated receptor gamma/Nuclear receptor coactivator 2, sequence (Q15596 whole entry, further chain): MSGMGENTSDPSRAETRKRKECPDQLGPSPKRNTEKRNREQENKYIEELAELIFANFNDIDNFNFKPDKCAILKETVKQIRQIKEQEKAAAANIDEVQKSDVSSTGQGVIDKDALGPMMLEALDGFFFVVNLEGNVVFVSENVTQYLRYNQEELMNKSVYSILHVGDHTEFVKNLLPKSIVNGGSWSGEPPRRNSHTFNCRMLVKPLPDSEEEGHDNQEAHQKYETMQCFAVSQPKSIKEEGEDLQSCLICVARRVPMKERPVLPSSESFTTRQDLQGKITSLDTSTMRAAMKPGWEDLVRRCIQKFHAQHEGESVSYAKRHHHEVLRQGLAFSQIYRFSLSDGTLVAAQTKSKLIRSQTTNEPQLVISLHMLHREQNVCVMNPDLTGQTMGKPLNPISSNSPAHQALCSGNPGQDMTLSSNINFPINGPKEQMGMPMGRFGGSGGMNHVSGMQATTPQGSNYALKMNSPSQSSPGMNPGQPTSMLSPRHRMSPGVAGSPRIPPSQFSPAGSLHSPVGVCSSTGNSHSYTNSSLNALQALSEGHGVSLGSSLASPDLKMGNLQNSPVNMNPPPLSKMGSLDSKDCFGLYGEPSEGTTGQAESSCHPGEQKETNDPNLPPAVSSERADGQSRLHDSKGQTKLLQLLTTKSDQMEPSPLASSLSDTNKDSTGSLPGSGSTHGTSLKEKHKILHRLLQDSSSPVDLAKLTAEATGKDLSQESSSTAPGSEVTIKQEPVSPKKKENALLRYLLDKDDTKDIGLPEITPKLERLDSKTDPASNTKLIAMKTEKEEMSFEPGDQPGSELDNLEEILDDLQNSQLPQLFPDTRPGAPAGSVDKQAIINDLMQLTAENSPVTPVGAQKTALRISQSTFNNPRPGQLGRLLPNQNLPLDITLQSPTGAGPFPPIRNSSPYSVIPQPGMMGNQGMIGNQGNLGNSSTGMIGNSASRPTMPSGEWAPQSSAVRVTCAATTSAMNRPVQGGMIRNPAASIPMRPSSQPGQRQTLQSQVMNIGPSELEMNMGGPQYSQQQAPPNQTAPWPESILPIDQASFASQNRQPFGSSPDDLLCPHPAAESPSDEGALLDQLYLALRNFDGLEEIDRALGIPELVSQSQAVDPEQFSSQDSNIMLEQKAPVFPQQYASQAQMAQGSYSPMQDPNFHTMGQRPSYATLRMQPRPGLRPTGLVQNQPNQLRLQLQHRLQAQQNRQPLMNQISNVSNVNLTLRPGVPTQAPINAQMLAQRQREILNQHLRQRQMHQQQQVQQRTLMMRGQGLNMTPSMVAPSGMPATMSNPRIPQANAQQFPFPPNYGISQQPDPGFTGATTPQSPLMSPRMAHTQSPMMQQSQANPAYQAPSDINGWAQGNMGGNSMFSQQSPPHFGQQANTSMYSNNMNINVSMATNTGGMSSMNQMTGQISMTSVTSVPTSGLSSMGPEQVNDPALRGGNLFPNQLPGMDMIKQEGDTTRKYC
Mitogen-activated protein kinase 10, sequence (P53779 whole entry): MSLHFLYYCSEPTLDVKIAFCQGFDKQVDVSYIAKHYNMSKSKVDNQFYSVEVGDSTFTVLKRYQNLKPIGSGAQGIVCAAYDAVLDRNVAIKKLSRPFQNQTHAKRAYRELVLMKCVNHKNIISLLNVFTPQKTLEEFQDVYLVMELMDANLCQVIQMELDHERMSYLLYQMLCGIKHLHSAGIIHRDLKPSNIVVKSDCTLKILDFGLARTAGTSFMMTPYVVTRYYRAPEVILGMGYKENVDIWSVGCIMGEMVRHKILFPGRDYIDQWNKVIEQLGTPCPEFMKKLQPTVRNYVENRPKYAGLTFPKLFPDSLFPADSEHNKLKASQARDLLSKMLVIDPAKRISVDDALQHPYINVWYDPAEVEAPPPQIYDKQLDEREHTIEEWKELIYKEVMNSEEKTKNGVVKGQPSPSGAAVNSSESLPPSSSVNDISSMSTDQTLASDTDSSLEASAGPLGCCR
Glyceraldehyde-3-phosphate dehydrogenase, sequence (P04406 whole entry): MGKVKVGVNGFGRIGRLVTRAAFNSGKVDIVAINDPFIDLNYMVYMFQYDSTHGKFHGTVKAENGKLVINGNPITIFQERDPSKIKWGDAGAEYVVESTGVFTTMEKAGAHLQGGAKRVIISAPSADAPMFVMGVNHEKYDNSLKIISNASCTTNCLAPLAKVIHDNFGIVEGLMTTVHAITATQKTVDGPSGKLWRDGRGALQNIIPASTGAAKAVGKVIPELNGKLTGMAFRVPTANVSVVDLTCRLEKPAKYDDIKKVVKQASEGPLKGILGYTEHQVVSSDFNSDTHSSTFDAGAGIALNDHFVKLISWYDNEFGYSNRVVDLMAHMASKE
Protein Wnt-3a, sequence (P27467 whole entry, the tested form may be a part): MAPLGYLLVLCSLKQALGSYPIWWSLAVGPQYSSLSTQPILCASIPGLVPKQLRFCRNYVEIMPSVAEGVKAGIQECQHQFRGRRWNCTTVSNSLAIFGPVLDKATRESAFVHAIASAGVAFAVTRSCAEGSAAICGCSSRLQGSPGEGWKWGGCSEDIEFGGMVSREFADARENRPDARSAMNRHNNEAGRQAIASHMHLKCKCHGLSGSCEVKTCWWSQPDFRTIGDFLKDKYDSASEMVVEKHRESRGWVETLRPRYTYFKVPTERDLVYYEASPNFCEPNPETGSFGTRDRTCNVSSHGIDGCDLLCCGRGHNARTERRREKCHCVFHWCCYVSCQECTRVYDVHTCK

## CC1(C)CN(c2ccccc2)N(C(=O)c2ccc(F)cc2)C1=O
[1]
  AC50: 3.63 µM (active)
Prothrombin
  IC50: 0.837 µM (active)

## CNc1ccc(/C=C(\CCC(=O)O)c2nc3ccccc3s2)cc1[N+](=O)[O-]
Aminopeptidase N
  IC50: 43.3 µM (active)

## COc1ccc(C2(CNC(=O)/C=C\c3ccco3)CCCC2)cc1OC
[2]
  EC50: > 79.4 µM (not active)
[3]
  EC50: > 79.4 µM (not active)
[4]
  EC50: > 79.4 µM (not active)

## O=C(CSc1nc(O)c2cnn(-c3ccc(F)cc3)c2n1)N1CCCCCC1
Prothrombin
  IC50: > 50 µM (not active)

## Cc1c(-c2ccccc2)n[nH]c1C(=O)O
[5]
  IC50: > 100 µM (inactive)
[6]
  IC50: > 100 µM (not active)

## NNC(=O)c1cc(-c2cc(F)c(F)cc2F)[nH]n1
[5]
  IC50: 0.316 µM (active)
[6]
  IC50: > 10 µM (inconclusive)

## Oc1c(C(c2ccccc2)N2CCN(Cc3ccccc3)CC2)sc2ncnn12 (centres undefined)
[7]
  IC50: > 100 µM (active)

## Cc1ccc(-n2c(C)cc(C(=O)COc3c(CO)cc(F)cc3CO)c2C)cc1C
[8]
  EC50: > 260 µM (inactive)
[2]
  EC50: > 79.4 µM (not active)
[3]
  EC50: > 79.4 µM (not active)
[4]
  EC50: > 79.4 µM (not active)

## Cn1c(CN2CCOCC2)nc2cc(NC(=O)c3ccc(F)cc3)ccc21
[7]
  IC50: > 100 µM (active)

## COc1cccc2sc(N3CCN(c4nc5ccccc5s4)CC3)nc12
[2]
  EC50: 19.1 µM (not active)
[3]
  EC50: 13.4 µM (not active)
[4]
  EC50: 22.9 µM (not active)

## Cc1ccccc1CC1(CO)CCCN(C(=O)CCC(=O)c2ccccc2)C1 (centres undefined)
[9]
  CC50: 28.5 µM (active)
[2]
  EC50: > 79.4 µM (not active)
[3]
  EC50: > 79.4 µM (not active)
[4]
  EC50: > 79.4 µM (not active)

## Cc1ccc(N2C(=O)C(Cl)=C(N(C)C)C2=O)cc1
[6]
  IC50: > 50 µM (inconclusive)

## COc1cc(CN/C(C)=C(\C#N)C(N)=O)cc(OC)c1OC
[10]
  IC50: 7.16 µM (active)

## CCCCN1C(=O)/C(=C/C=C2\SCCN2C)SC1=S
HeLa
  AC50: 39.1 µM (active)

## CC[N+](C)(CC)CCC(c1ccccc1)C1CCCCC1 (centres undefined)
INS1
  AC50: 233 µM (active)
Protein Wnt-3a
  IC50: 39 µM (inactive)
[11]
  IC50: 4.65 µM (active)

## COc1ccc(C(C)=O)cc1COC(=O)c1c(C)noc1C
[10]
  IC50: 39.8 µM (not active)

## c1ccc(-c2noc(COc3ccc4c(c3)OCO4)n2)cc1
HeLa
  AC50: 339 µM (active)

## COc1ccccc1NS(=O)(=O)c1ccc(Cl)c(NC(=O)C(C)N2C(=O)c3ccccc3C2=O)c1 (centres undefined)
Aminopeptidase N
  IC50: 26.9 µM (active)

## CS(=O)(=O)Nc1ccc(-c2cc(/C=C3\SC(N)=NC3=O)cnc2O)cc1
[12]
  AC50: 0.265 µM (active)

## COc1ccc(NC(=O)/C(C#N)=C/c2ccc(Br)o2)cc1
[13]
  CC50: 27.4 µM (active)
[11]
  IC50: 5.43 µM (active)

## O=C(NC1CCCC1)c1cccnc1N1CCCCCC1
Cytochrome P450 2C9
  AC50: 35.5 µM (inconclusive)
[10]
  IC50: > 93.1 µM (not active)

## C[C@H]1CN(C2=C(Cl)C(=O)N(c3cccc(C(F)(F)F)c3)C2=O)CCN1
[6]
  IC50: > 50 µM (inconclusive)

## O=C(Nc1ccc(Cl)c(Cl)c1)Nc1ccccc1O
[1]
  AC50: 5.67 µM (active)
HeLa
  AC50: 49.7 µM (active)

## CCOC(=O)n1cc(-c2cnc(CNC(=O)C(C)(c3ccccc3)c3ccccc3)o2)c2ccccc21
[2]
  EC50: > 79.4 µM (not active)
[3]
  EC50: > 79.4 µM (not active)
[4]
  EC50: > 79.4 µM (not active)

## COc1ccccc1CNC(=O)c1cn(C)c2ccc(S(=O)(=O)N3CCCC3)cc2c1=O
Prothrombin
  IC50: 5.95 µM (active)

## CCN1C(=O)/C(=C2/Sc3ccccc3N2CC)S/C1=N\c1nc[nH]n1
[12]
  AC50: 1.04 µM (active)

## Oc1[nH]c2ccccc2c1/C=N/c1ccc2c(c1)OCCO2
[10]
  IC50: 89.9 µM (not active)

## COc1ccc(/C=N\NS(=O)(=O)c2ccc(Cl)cc2)cc1COc1ccccc1[N+](=O)[O-]
Prothrombin
  IC50: > 50 µM (not active)

## Cn1c(SCC(=O)c2ccc(O)c(O)c2)nnc1-c1ccccc1
[5]
  IC50: 93.4 µM (active)

Reference: ChEMBL document CHEMBL1201862, “PubChem BioAssay data set” (2004)
